Columns and labels:
TNF-α = experiment: Inhibition of TNF-α production in anti-CD3 stimulated spleen cells of mouse, ELISA (Experimental Example 6); type: cell-based; details: spleen cells of DBA1/J normal mouse, anti mouse CD3 0.5 μg/ml, compound 200 and 500 μM; FIG. 24
Method: (§1) Furthermore, the inventors verified that inhibition degree of IL-17 and TNF-α as the inflammatory cytokines through an ELISA after treating anti mouse CD3 at a concentration of 0.5 μg/ml in the cells obtained from the spleen of a DBA1/J normal mouse group and commonly stimulating each compound at a concentration of 200 and 500 μM, in order to evaluating efficacy in an effect of inhibiting the inflammatory cytokines by targeting the compounds synthesized in Examples of the present invention.

IL-17 [1] = experiment: Inhibition of IL-17 production in anti-CD3 stimulated spleen cells of mouse, ELISA (Experimental Example 6); type: cell-based; details: spleen cells of DBA1/J normal mouse, anti mouse CD3 0.5 μg/ml, compound 200 and 500 μM; FIG. 24
Method: as §1

IgG1 = experiment: Autoantibody production, sandwich ELISA: IgG1; type: cell-based, mouse
TNF-a [2] = experiment: Production of inflammatory cytokines, ELISA: TNF-a, mouse spleen cells; type: cell-based
Treg cells = experiment: Treg cell-induced activity, flow cytometry; type: cell-based, mouse; details: TCR condition
[3] = test system: cells in each test group disclosed in Table 3; experiment: Cytotoxicity analysis (MTT assay); type: cell-based, mouse; human; details: treatment for each concentration, 72 hrs; normal cells and disease-group cells; compared with control or metformin-treated group
Method: In order to verify whether the compounds synthesized in the present invention causes the cytotoxicity in the cells, an MTT assay was performed, target cells were divided to be the number of 2×10^5 cells per well on a 96 well plate, treated with the compounds of the present invention for each concentration, incubated for 72 hrs, added with an MTT solution (0.5% 3-4,5-dimethyl thiazol-2-yl)-2,5-diphenyl-2H-tetrazolium bromide), and incubated for 4 hrs again. Thereafter, absorbance at 540 nm was measured by an enzymelinked immunospecific assay (ELISA) meter to observe the cytotoxicity.
In order to verify whether the novel compounds synthesized in Example 1 have the cytotoxicity, a cell survival rate was verified through the MTT assay by targeting cells in each test group disclosed in Table 3 above. That is, the cells of each test group were divided according to the number of 2×10^5 cells per well and treated with the novel synthesized compounds of the present invention for each concentration, and the cell survival rate was analyzed.

IFN-r [4] = experiment: Production of inflammatory cytokines, ELISA: IFN-r, lymphocytes of human peripheral blood; type: cell-based; details: D: Lymphocytes of human peripheral blood
Method: (§2) Further, in a lupus-developed mouse model, a sanroque mouse used in a lupus model in the art was used and the human P.B group was used by obtaining lymphocytes from the human peripheral blood. The isolation of spleen cells and the isolation of lymphocytes from each mouse and the human peripheral blood were performed by a general method which was widely known in the art and the obtained cells were incubated for 72 h under the anti-CD3 0.5 μg/ml stimulation condition, activated, and then used.
(§3) In order to verify whether the novel compounds of the present invention have an effect on inflammation and the production of inflammatory cytokines as cause substances of the immune diseases, the inventors analyzed the production degree of IL-17, IL-6, TNF-α, IFN-γ, MMP-9, and STAT-3 and the expression degree of mRNA of these cytokines by targeting each test group. The production degree of the inflammatory cytokines was analyzed through an ELISA after obtaining a supernatant by targeting cells which were treated with the compound of the present invention and incubated, and particularly, the cells reacted with cytokine-specific antibodies anti-IL-17, anti-IL-6, anti-TNF-α, anti-IFN-γ, anti-MMP-9, and anti-STAT-3 all night at […] and then non-specific binding was blocked with a blocking solution (1% BSA/PBST). Thereafter, each biotinylated antibody was reacted at room temperature for 2 hrs, washed four times, and then reacted at room temperature for 2 hrs after diluting and adding an extravidin-alkaline phosphatase conjugate. Thereafter, a PNPP/DEA solution was added and colored, and then the absorbance was measured at a wavelength of 405 nm.

IL-17 [5] = experiment: Production of inflammatory cytokines, ELISA: IL-17, mouse spleen cells; type: cell-based
IL-6 = experiment: Production of inflammatory cytokines, ELISA: IL-6, mouse spleen cells; type: cell-based
Th17 cells = experiment: Inhibition of Th17 cells, flow cytometry; type: cell-based, mouse
osteoclasts = experiment: Inhibition of differentiation of osteoclasts, TRAP staining; type: cell-based, mouse; details: M-CSF and RANKL
IFN-r [6] = experiment: Production of inflammatory cytokines, ELISA: IFN-r, mouse spleen cells; type: cell-based
IgG2 = experiment: Autoantibody production, sandwich ELISA: IgG2; type: cell-based, mouse
IL-17 [7] = experiment: Production of inflammatory cytokines, ELISA: IL-17, lymphocytes of human peripheral blood; type: cell-based; details: D: Lymphocytes of human peripheral blood
Method: as §2, §3

STAT3 = experiment: Inflammatory gene expression, RT-PCR: STAT3; type: cell-based; details: A: Normal mouse cells; control = 1
MMP-9 = experiment: Inflammatory gene expression, RT-PCR: MMP-9; type: cell-based, mouse; details: control = 1
TNF-a [8] = experiment: Inflammatory gene expression, RT-PCR: TNF-a; type: cell-based, mouse; details: control = 1
Total IgG = experiment: Autoantibody production, sandwich ELISA: Total IgG; type: cell-based, mouse
[9] = TCR condition, A: Normal mouse cells
[10] = TCR condition, B: Rheumatoid arthritis cells
[11] = Th17 condition (Th17 differentiation condition), A: Normal mouse cells

CCCN(C(=N)NC(=N)N)c1ccc(F)cc1F [SD-580, N-(2,4-Difluorophenyl)-N-propylbiguanide]
inhibition of TNF-α production (TNF-α): simultaneously inhibiting the IL-17 and the TNF-α | inhibition of IL-17 production (IL-17 [1]): simultaneously inhibiting the IL-17 and the TNF-α

CCN(C(=N)NC(=N)N)c1ccc(F)cc1F [SD-283, N-(2,4-Difluorophenyl)-N-ethylbiguanide]
IgG1 (IgG1; A: Normal mouse cells): 41 ng/mL | IgG1 (IgG1; B: Rheumatoid arthritis cells): 135.3 ng/mL | IgG1 (IgG1; C: Lupus cells): 296.5 ng/mL | TNF-a production (TNF-a [2]; A: Normal mouse cells): 0.5 ng/mL | TNF-a production (TNF-a [2]; B: Rheumatoid arthritis cells): 0.3 ng/mL | TNF-a production (TNF-a [2]; C: Lupus cells): 0.6 ng/mL | Treg (Treg cells; A: Normal mouse cells): 3 | Treg (Treg cells; B: Rheumatoid arthritis cells): 5.1 | Treg (Treg cells; C: Lupus cells): 3.3 | cytotoxicity (cell survival rate, MTT) [3]: cytotoxicity was not observed | IFN-r production (IFN-r [4]): 0.1 ng/mL | IL-17 production (IL-17 [5]; A: Normal mouse cells): 1.6 ng/mL | IL-17 production (IL-17 [5]; B: Rheumatoid arthritis cells): 2.2 ng/mL | IL-17 production (IL-17 [5]; C: Lupus cells): 0.4 ng/mL | IL-6 production (IL-6; A: Normal mouse cells): 1.4 ng/mL | IL-6 production (IL-6; B: Rheumatoid arthritis cells): 1.1 ng/mL | IL-6 production (IL-6; C: Lupus cells): 0.9 ng/mL | Th17 (Th17 cells; [9]): 1.1 | Th17 (Th17 cells; [10]): 2.3 | Th17 (Th17 cells; TCR condition, C: Lupus cells): 0.5 | Th17 (Th17 cells; [11]): 0.9 | TRAP + Cell (osteoclasts; A: Normal mouse cells): 123 | TRAP + Cell (osteoclasts; B: Rheumatoid arthritis cells): 85 | IFN-r production (IFN-r [6]; A: Normal mouse cells): 7.2 ng/mL | IFN-r production (IFN-r [6]; B: Rheumatoid arthritis cells): 5.4 ng/mL | IFN-r production (IFN-r [6]; C: Lupus cells): 5.5 ng/mL | IgG2 (IgG2; A: Normal mouse cells): 97.6 ng/mL | IgG2 (IgG2; B: Rheumatoid arthritis cells): 99.4 ng/mL | IgG2 (IgG2; C: Lupus cells): 76 ng/mL | IL-17 production (IL-17 [7]): 0.1 ng/mL | STAT3 gene expression (STAT3): 1.3 gene expression | MMP-9 gene expression (MMP-9; A: Normal mouse cells): 0.3 gene expression | MMP-9 gene expression (MMP-9; B: Rheumatoid arthritis cells): 1 gene expression | MMP-9 gene expression (MMP-9; C: Lupus cells): 0.04 gene expression | TNF-a gene expression (TNF-a [8]; A: Normal mouse cells): 0.4 gene expression | TNF-a gene expression (TNF-a [8]; B: Rheumatoid arthritis cells): 0.06 gene expression | TNF-a gene expression (TNF-a [8]; C: Lupus cells): 0.1 gene expression | Total IgG (Total IgG; A: Normal mouse cells): 2.9 ng/mL | Total IgG (Total IgG; B: Rheumatoid arthritis cells): 49.6 ng/mL | Total IgG (Total IgG; C: Lupus cells): 113.5 ng/mL

CCN(C(=N)NC(=N)N)c1ccccc1 [SD-573, N-Ethyl-N-phenyl biguanide]
inhibition of TNF-α production (TNF-α): simultaneously inhibiting the IL-17 and the TNF-α | inhibition of IL-17 production (IL-17 [1]): simultaneously inhibiting the IL-17 and the TNF-α

CCN(C(=N)NC(=N)N)c1ccccc1F [SD-574, N-Ethyl-N-(2-fluorophenyl) biguanide]
inhibition of TNF-α production (TNF-α): simultaneously inhibiting the IL-17 and the TNF-α | inhibition of IL-17 production (IL-17 [1]): simultaneously inhibiting the IL-17 and the TNF-α

CCN(C(=N)NC(=N)N)c1ccc(Br)cc1 [SD-567, N-(4-Bromophenyl)-N-ethyl-biguanide]
inhibition of TNF-α production (TNF-α): simultaneously inhibiting the IL-17 and the TNF-α | inhibition of IL-17 production (IL-17 [1]): simultaneously inhibiting the IL-17 and the TNF-α

CCN(C(=N)NC(=N)N)c1ccc(F)cc1 [SD-282, N-Ethyl-N-(4-fluorophenyl) biguanide]
IgG1 (IgG1; A: Normal mouse cells): 1 ng/mL | IgG1 (IgG1; B: Rheumatoid arthritis cells): 218.7 ng/mL | IgG1 (IgG1; C: Lupus cells): 425.4 ng/mL | TNF-a production (TNF-a [2]; A: Normal mouse cells): 0.4 ng/mL | TNF-a production (TNF-a [2]; B: Rheumatoid arthritis cells): 0.4 ng/mL | TNF-a production (TNF-a [2]; C: Lupus cells): 0.7 ng/mL | Treg (Treg cells; A: Normal mouse cells): 2.5 | Treg (Treg cells; B: Rheumatoid arthritis cells): 4.6 | Treg (Treg cells; C: Lupus cells): 2.9 | cytotoxicity (cell survival rate, MTT) [3]: cytotoxicity was not observed | IFN-r production (IFN-r [4]): 0.1 ng/mL | IL-17 production (IL-17 [5]; A: Normal mouse cells): 1.7 ng/mL | IL-17 production (IL-17 [5]; B: Rheumatoid arthritis cells): 2.1 ng/mL | IL-17 production (IL-17 [5]; C: Lupus cells): 0.6 ng/mL | IL-6 production (IL-6; A: Normal mouse cells): 1.3 ng/mL | IL-6 production (IL-6; B: Rheumatoid arthritis cells): 1.3 ng/mL | IL-6 production (IL-6; C: Lupus cells): 1 ng/mL | Th17 (Th17 cells; [9]): 1.2 | Th17 (Th17 cells; [10]): 1.5 | Th17 (Th17 cells; TCR condition, C: Lupus cells): 0.9 | Th17 (Th17 cells; [11]): 0.5 | TRAP + Cell (osteoclasts; A: Normal mouse cells): 157 | TRAP + Cell (osteoclasts; B: Rheumatoid arthritis cells): 89 | IFN-r production (IFN-r [6]; A: Normal mouse cells): 3.3 ng/mL | IFN-r production (IFN-r [6]; B: Rheumatoid arthritis cells): 2.9 ng/mL | IFN-r production (IFN-r [6]; C: Lupus cells): 7.6 ng/mL | IgG2 (IgG2; A: Normal mouse cells): 37.1 ng/mL | IgG2 (IgG2; B: Rheumatoid arthritis cells): 38.3 ng/mL | IgG2 (IgG2; C: Lupus cells): 110.9 ng/mL | IL-17 production (IL-17 [7]): 0.1 ng/mL | STAT3 gene expression (STAT3): 0.6 gene expression | MMP-9 gene expression (MMP-9; A: Normal mouse cells): 0.1 gene expression | MMP-9 gene expression (MMP-9; B: Rheumatoid arthritis cells): 0.08 gene expression | MMP-9 gene expression (MMP-9; C: Lupus cells): 1.3 gene expression | TNF-a gene expression (TNF-a [8]; A: Normal mouse cells): 0.07 gene expression | TNF-a gene expression (TNF-a [8]; B: Rheumatoid arthritis cells): 0.06 gene expression | TNF-a gene expression (TNF-a [8]; C: Lupus cells): 0.8 gene expression | Total IgG (Total IgG; A: Normal mouse cells): 0.7 ng/mL | Total IgG (Total IgG; B: Rheumatoid arthritis cells): 60.3 ng/mL | Total IgG (Total IgG; C: Lupus cells): 127.7 ng/mL

CCN(C(=N)NC(=N)N)c1ccc(Cl)cc1 [SD-566, N-(4-Chlorophenyl)-N-ethyl-biguanide]
inhibition of TNF-α production (TNF-α): simultaneously inhibiting the IL-17 and the TNF-α | inhibition of IL-17 production (IL-17 [1]): simultaneously inhibiting the IL-17 and the TNF-α

CN(C(=N)NC(=N)N)c1ccc(F)cc1F [SD-284, N-(2,4-Difluorophenyl)-N-methylbiguanide]
TNF-a production (TNF-a [2]; Table 6, normal mouse cells): 0.5 ng/mL | cytotoxicity (cell survival rate, MTT) [3]: cytotoxicity was not observed | IFN-r production (IFN-r [4]): 0.08 ng/mL | IL-17 production (IL-17 [5]; Table 6, normal mouse cells): 6.5 ng/mL | IL-6 production (IL-6; Table 6, normal mouse cells): 0.7 ng/mL | Th17 (Th17 cells; [11]): 2 | IFN-r production (IFN-r [6]; Table 6, normal mouse cells): 4.9 ng/mL | IL-17 production (IL-17 [7]): 0.1 ng/mL

N=C(N)NC(=N)Nc1cccc(Cl)c1 [SD-564, N-(3-Chlorophenyl) biguanide]
inhibition of TNF-α production (TNF-α): simultaneously inhibiting the IL-17 and the TNF-α | inhibition of IL-17 production (IL-17 [1]): simultaneously inhibiting the IL-17 and the TNF-α

N=C(N)NC(=N)Nc1ccc(Br)cc1 [SD-563, N-(4-Bromophenyl) biguanide]
inhibition of TNF-α production (TNF-α): simultaneously inhibiting the IL-17 and the TNF-α | inhibition of IL-17 production (IL-17 [1]): simultaneously inhibiting the IL-17 and the TNF-α

From patent US10100006B2, “Compound having immune disease treatment effect and use thereof” (THE CATHOLIC UNIVERSITY OF KOREA INDUSTRY—ACADEMIC …, priority 2014, dated 2018)
